Assay results reported in ChEMBL document CHEMBL1150470, “The synthesis and cognition enhancing effects of a series of dibenzoyl guanidines. Analogs of N,N-[[4-(aminocarbonyl)phenyl]carbonimidoyl]bis[benzamide]” (1992).
Calls of active or inactive are those of the source. The rule behind the calls is not given here.

How the values were obtained:
Mus musculus [1] = assay: The compound was evaluated for improvement of anoxic amnesia in mice after ip administration at 10 mg/kg dose; 74-(-19); assay type: functional; conditions: route intraperitoneal
Mus musculus [2] = assay: Evaluated for hypoxic survival activity in mice after intraperitoneal administration at 10 mg/kg dose; 50-50; assay type: functional; conditions: ip
Mus musculus [3] = assay: Evaluated for hypoxic survival activity in mice after intraperitoneal administration at 100 mg/kg dose; 5-45; assay type: functional; conditions: ip
Mus musculus [4] = assay: The compound was evaluated for improvement of anoxic amnesia in mice after ip administration at 50-200 mg/kg dose; Inactive; assay type: functional, organism-based
Mus musculus [5] = assay: Evaluated for hypoxic survival activity in mice after intraperitoneal administration at 100 mg/kg dose; assay type: functional; conditions: ip
Mus musculus [6] = assay: Evaluated for hypoxic survival activity in mice after intraperitoneal administration at 10 mg/kg dose; assay type: functional; conditions: ip
Mus musculus [7] = assay: Evaluated for hypoxic survival activity in mice after intraperitoneal administration at 50 mg/kg dose; assay type: functional; conditions: ip
Mus musculus [8] = assay: Evaluated for hypoxic survival activity in mice after intraperitoneal administration at 25 mg/kg dose; 25-55; assay type: functional; conditions: ip
Mus musculus [9] = assay: The compound was evaluated for improvement of anoxic amnesia in mice after ip administration at 25 mg/kg dose; assay type: functional; conditions: route intraperitoneal
Mus musculus [10] = assay: Evaluated for hypoxic survival activity in mice after intraperitoneal administration at 10 mg/kg dose; 45-55; assay type: functional; conditions: ip
Mus musculus [11] = assay: Evaluated for hypoxic survival activity in mice after intraperitoneal administration at 100 mg/kg dose; 35-50; assay type: functional; conditions: ip
Mus musculus [12] = assay: Evaluated for hypoxic survival activity in mice after intraperitoneal administration at 0.125 mg/kg dose; 60-80; assay type: functional; conditions: ip
Mus musculus [13] = assay: The compound was evaluated for improvement of anoxic amnesia in mice after ip administration at 100 mg/kg dose; assay type: functional; conditions: route intraperitoneal
Mus musculus [14] = assay: Evaluated for hypoxic survival activity in mice after intraperitoneal administration at 50 mg/kg dose; 35-50; assay type: functional; conditions: ip
Mus musculus [15] = assay: Evaluated for hypoxic survival activity in mice after intraperitoneal administration at 100 mg/kg dose; 65-80; assay type: functional; conditions: ip
Mus musculus [16] = assay: The compound was evaluated for improvement of anoxic amnesia in mice after ip administration at 50 mg/kg dose; 53, -8, 102; assay type: functional; conditions: route intraperitoneal
Mus musculus [17] = assay: Evaluated for hypoxic survival activity in mice after intraperitoneal administration at 100 mg/kg dose; 95-95; assay type: functional; conditions: ip
Mus musculus [18] = assay: The compound was evaluated for improvement of anoxic amnesia in mice after ip administration at 10 mg/kg dose; assay type: functional; conditions: route intraperitoneal
Mus musculus [19] = assay: Evaluated for hypoxic survival activity in mice after intraperitoneal administration at 100 mg/kg dose; 40-40; assay type: functional; conditions: ip
Mus musculus [20] = assay: The compound was evaluated for improvement of anoxic amnesia in mice after ip administration at 50 mg/kg dose; assay type: functional; conditions: route intraperitoneal
Mus musculus [21] = assay: Evaluated for hypoxic survival activity in mice after intraperitoneal administration at 25 mg/kg dose; 55-65; assay type: functional; conditions: ip
Mus musculus [22] = assay: Evaluated for hypoxic survival activity in mice after intraperitoneal administration at 100 mg/kg dose; 30-95; assay type: functional; conditions: ip
Mus musculus [23] = assay: The compound was evaluated for improvement of anoxic amnesia in mice after ip administration at 10 mg/kg dose; Inactive; assay type: functional, organism-based; design: dose 10 mg/kg
Mus musculus [24] = assay: Evaluated for hypoxic survival activity in mice after intraperitoneal administration at 10 mg/kg dose; 40-55; assay type: functional; conditions: ip
Mus musculus [25] = assay: Evaluated for hypoxic survival activity in mice after intraperitoneal administration at 25 mg/kg dose; 5-55; assay type: functional; conditions: ip
Mus musculus [26] = assay: Evaluated for hypoxic survival activity in mice after intraperitoneal administration at 10 mg/kg dose; 50-80; assay type: functional; conditions: ip
Mus musculus [27] = assay: The compound was evaluated for improvement of anoxic amnesia in mice after ip administration at 100 mg/kg dose; Inactive; assay type: functional, organism-based; design: dose 100 mg/kg
Mus musculus [28] = assay: Evaluated for hypoxic survival activity in mice after intraperitoneal administration at 100 mg/kg dose; 55-80; assay type: functional; conditions: ip
Mus musculus [29] = assay: Evaluated for hypoxic survival activity in mice after intraperitoneal administration at 100 mg/kg dose; 15-50; assay type: functional; conditions: ip
Mus musculus [30] = assay: The compound was evaluated for improvement of anoxic amnesia in mice after ip administration at 50 mg/kg dose; 33-76; assay type: functional; conditions: route intraperitoneal
Mus musculus [31] = assay: Evaluated for hypoxic survival activity in mice after po administration of 100 mg/kg dose; assay type: functional
Mus musculus [32] = assay: Evaluated for hypoxic survival activity in mice after intraperitoneal administration at 100 mg/kg dose; 45-70; assay type: functional; conditions: ip

`COc1ccc(C(=O)N/C(=N/C(=O)c2ccccc2)Nc2ccc(C(N)=O)cc2)cc1` showed an Improvement (Mus musculus [1]) of 28% and a survival at 10 mg/kg (Mus musculus [2]) of 50%.
`NC(=O)c1ccc(N/C(=N\C(=O)c2ccccc2)NC(=O)c2ccc([N+](=O)[O-])cc2)cc1` gave a survival at 100 mg/kg (Mus musculus [3]) of 25%.
With `COc1ccc(C(=O)/N=C(/NC(=O)c2ccc(C)cc2)Nc2ccc(C(N)=O)cc2)cc1` the Improvement (Mus musculus [4]) was “inactive” and the survival at 100 mg/kg (Mus musculus [5]) was 43%.
`NC(=O)c1ccc(N/C(=N\C(=O)c2ccccc2)NC(=O)c2cccc(C(F)(F)F)c2)cc1` gave a survival at 10 mg/kg (Mus musculus [6]) of 15%.
Work on `COc1ccc(C(=O)/N=C(/NC(=O)c2ccc(C(F)(F)F)cc2)Nc2ccc(C(N)=O)cc2)cc1` yielded a survival at 50 mg/kg (Mus musculus [7]) of 55%.
Molecule `Cc1cccc(C(=O)N/C(=N/C(=O)c2ccccc2)Nc2ccc(C(N)=O)cc2)c1` has a survival at 100 mg/kg (Mus musculus [5]) of 25%.
In the case of `NC(=O)c1ccc(N/C(=N\C(=O)c2ccc(F)cc2)NC(=O)c2ccc(Br)cc2)cc1`, the survival at 25 mg/kg (Mus musculus [8]) is reported as 40%.
Molecule `COc1ccc(C(=O)/N=C(/NC(=O)c2cccc(Cl)c2)Nc2ccc(C(N)=O)cc2)cc1` has a survival at 10 mg/kg (Mus musculus [6]) of 15%.
`NC(=O)c1ccc(N/C(=N\C(=O)c2ccccc2)NC(=O)c2cccc(Br)c2)cc1` showed an Improvement (Mus musculus [9]) of 118% and a survival at 10 mg/kg (Mus musculus [10]) of 50%.
`NC(=O)c1ccc(N/C(=N\C(=O)c2cccc(C(F)(F)F)c2)NC(=O)c2cccc(C(F)(F)F)c2)cc1` gave a survival at 100 mg/kg (Mus musculus [5]) of 5%.
In the case of `COc1ccc(C(=O)/N=C(/NC(=O)c2ccc(F)cc2)Nc2ccc(C(N)=O)cc2)cc1`, the Improvement (Mus musculus [4]) is reported as “inactive” and the survival at 100 mg/kg (Mus musculus [11]) is reported as 42%.
Work on `CNC(=O)Oc1ccc2c(c1)[C@]1(C)CCN(C)[C@@H]1N2C` [PHYSOSTIGMINE] yielded a survival at 0.125 mg/kg (Mus musculus [12]) of 60%.
`Cc1cccc(C(=O)/N=C(/NC(=O)c2cccc(C)c2)Nc2ccc(C(N)=O)cc2)c1` showed an Improvement (Mus musculus [13]) of 20% and a survival at 50 mg/kg (Mus musculus [14]) of 40%.
For `CC(C)(C)c1ccc(C(=O)N/C(=N/C(=O)c2ccccc2)Nc2ccc(C(N)=O)cc2)cc1`, the survival at 100 mg/kg (Mus musculus [15]) was 72%.
With `NC(=O)c1ccc(N/C(=N\C(=O)c2ccccc2)NC(=O)c2ccccc2C(F)(F)F)cc1` the survival at 10 mg/kg (Mus musculus [6]) was 5%.
Work on `COc1ccc(C(=O)/N=C(/NC(=O)c2ccc(OC)cc2)Nc2ccc(C(N)=O)cc2)cc1` yielded a survival at 10 mg/kg (Mus musculus [6]) of 15%.
In the case of `NC(=O)c1ccc(N/C(=N\C(=O)c2ccc(F)cc2)NC(=O)c2cccc(Cl)c2)cc1`, the survival at 10 mg/kg (Mus musculus [6]) is reported as 25%.
Molecule `NC(=O)c1ccc(N/C(=N\C(=O)c2ccccc2)NC(=O)c2cccc(Cl)c2)cc1` has an Improvement (Mus musculus [16]) of 49% and a survival at 100 mg/kg (Mus musculus [17]) of 95%.
`COc1ccc(C(=O)/N=C(/NC(=O)c2cccc(C)c2)Nc2ccc(C(N)=O)cc2)cc1` showed an Improvement (Mus musculus [18]) of 28% and a survival at 10 mg/kg (Mus musculus [10]) of 50%.
`NC(=O)c1ccc(N/C(=N\C(=O)c2ccccc2)NC(=O)c2ccc(C(F)(F)F)cc2)cc1` was tested, and the survival at 100 mg/kg (Mus musculus [19]) was 40%.
For `NC(=O)c1ccc(N/C(=N\C(=O)c2ccccc2)NC(=O)c2ccc(Br)cc2)cc1`, the Improvement (Mus musculus [20]) was 12% and the survival at 25 mg/kg (Mus musculus [21]) was 60%.
Molecule `NC(=O)c1ccc(N/C(=N\C(=O)c2ccccc2)NC(=O)c2cccc([N+](=O)[O-])c2)cc1` has a survival at 100 mg/kg (Mus musculus [22]) of 60%.
Work on `Cc1ccc(C(=O)N/C(=N/C(=O)c2ccccc2)Nc2ccc(C(N)=O)cc2)cc1` yielded a survival at 10 mg/kg (Mus musculus [6]) of 5%.
In the case of `CN(C)CCOc1ccc(C(=O)N/C(=N/C(=O)c2ccccc2)Nc2ccc(C(N)=O)cc2)cc1`, the Improvement (Mus musculus [23]) is reported as “inactive” and the survival at 10 mg/kg (Mus musculus [24]) is reported as 48%.
For `NC(=O)c1ccc(N/C(=N\C(=O)c2ccccc2)NC(=O)c2ccc(F)cc2)cc1`, the survival at 25 mg/kg (Mus musculus [25]) was 35%.
Molecule `CCOc1cccc(C(=O)N/C(=N/C(=O)c2ccccc2)Nc2ccc(C(N)=O)cc2)c1` has a survival at 10 mg/kg (Mus musculus [26]) of 67%.
For `NC(=O)c1ccc(N/C(=N\C(=O)c2ccc(F)cc2)NC(=O)c2cccc(F)c2)cc1`, the Improvement (Mus musculus [27]) was “inactive” and the survival at 100 mg/kg (Mus musculus [28]) was 68%.
Molecule `N#Cc1ccc(C(=O)N/C(=N/C(=O)c2ccccc2)Nc2ccc(C(N)=O)cc2)cc1` has a survival at 100 mg/kg (Mus musculus [29]) of 38%.
For `NC(=O)c1ccc(N/C(=N\C(=O)c2ccccc2)NC(=O)c2ccccc2)cc1`, the Improvement (Mus musculus [30]) was 50%, the survival at 100 mg/kg (Mus musculus [31]) was 48% and the survival at 100 mg/kg (Mus musculus [32]) was 57%.
